Assay results: patent US20230105412A1, “5-HT3 RECEPTOR MODULATOR, THE CRYSTALLINE FORM, METHODS OF MAKING, AND USE THEREOF” (CHENGDU SCIMOUNT PHARMATECH CO., LTD., priority 2021, published 2023)
Values after ≈ are worked out from the molar mass of the structure shown.

How the values were obtained:
Format in all cases: physicochemical
[1] = Gravimetric water solubility by TGA; settings: deionized water, ambient, TGA gravimetric or visual dissolution, XRPD Form A
Experimental: The water solubility of select salts afforded from the 70 mg scale experiments was estimated using the following gravimetric method. Approximately 20 mg of each confirmed salt was weighed into a 2 mL HPLC vial. 50 μL increments of deionized H2O were then added to each vial along with a small magnetic stir bar. If dissolution was observed, the samples were stored in a hood overnight and examined the next day for precipitation. Samples affording slurries after a maximum of 250 μl of water were left stirring at ambient conditions overnight to equilibrate. These samples were then centrifuge filtered, and 50 μL of each saturated solution was aliquoted into tared TGA pans. On the TGA, each sample was heated and held at elevated temperature until all solvent was dried off. Resulting dry weight and aliquoted volume for each saturated solution was then utilized in estimating solubility. Refer to Table 3 for results of this study.

[2] = Aqueous solubility study (water slurry, HPLC, pH, XRPD); settings: for pH: pH of supernatant of overnight water slurry; for XRPD (Form) after water slurry: solids after overnight room temperature water slurry, initial Form A
Experimental: Approximately 20 mg of the free form, mesylate, hydrochloride, succinate, glutamate, naphthoate and phosphate salts of formula (I) were weighed to individual HPLC vials equipped with a magnetic stir bar and 0.05 mL increments of deionized water added. If dissolution was observed, the approximate solubility was recorded. If no dissolution had occurred, the slurries were stirred overnight at ambient temperature. The supernatant from each slurry was obtained using centrifuge filters. Each solution was tested for pH and by HPLG versus a calibration curve (FIG. 6) to determine the equilibrium solubility. Solids obtained from the filtration were analyzed by XRPD to confirm the crystalline form (Table 4).

[3] = Stability at elevated temperature (60° C., 7 days); settings: for XRPD (Form) after elevated temperature: 60° C., 7 days, uncovered, ambient pressure, initial Form A
Experimental: Approximately 10 mg of the free form, mesylate, hydrochloride, succinate, glutamate, naphthoate and phosphate salts of formula (I) were weighed to individual 4 mL vials and stored uncovered in an oven at 60° C. and ambient pressure. After seven days of exposure, the solids were analyzed by XRPD to check for form conversion and ^1H-NMR for signs of degradation (Table 5).

[4] = Gravimetric moisture sorption analysis; settings: for hygroscopicity: gravimetric moisture sorption; for hygroscopicity / water adsorbed / behaviour at high relative humidity: Form A; for XRPD of dried material following moisture sorption program: initial Form A; for behaviour at high relative humidity: above 80% RH (80% RH to 90% RH)
Experimental: The stability of each salt was assessed via room temperature slurries in organic solvent and water, storage at elevated temperature (60° C.), and exposure to elevated relative humidity by gravimetric moisture sorption. From the water slurries, the solubility of each salt was determined at ambient conditions.

[5] = Organic slurry experiments (7 days, THF or IPA); settings: initial Form A
Experimental: Approximately 30 mg of the free form, mesylate, hydrochloride, succinate, glutamate, naphthoate and phosphate salts of formula (I) were weighed to individual HPLG vials equipped with a magnetic stir bar. Either THF or IPA was added to obtain a free flowing slurry. After seven days of ambient equilibration, solid from each slurry was obtained using centrifuge filtration with 0.45 μm nylon centrifuge filters, and dried at ambient temperature and ˜30 in Hg. After drying overnight, each was analyzed by XRPD to check for form conversion and ^1H-NMR for signs of degradation (Table 6).

[6] = Relative humidity study (95% RH); settings: five hours, Form A lot HAL-G-29(2)
Experimental: Approximately 30 mg of Form A mono-glutamate salt [lot HAL-G-29(2)] was stored uncovered in a small glass container in a desiccator containing an aqueous saturated solution of Na2HPO4.12H2O to achieve a relative humidity of 95%. After five hours of exposure the solid had deliquesced and the sample was exposed to the lab environment (20% RH) overnight. The resulting dried solid was characterized by XRPD, DSC, and TGA.
As presented above, Form B was obtained following moisture sorption analysis of Form A and subsequent drying. In an effort to generate additional Form B for further characterization, a brief humidity study was performed as described below: approximately 30 mg of Form A mono-glutamate salt [lot HAL-G-29(2)] was stored uncovered in a small glass container in a desiccator containing an aqueous saturated solution of Na2HPO4.12H2O to achieve a relative humidity of 95%.

Structure (SMILES)	XRPD (Form) after elevated temperature [3]	hygroscopicity [4]	XRPD of dried material following moisture sorption program [4]	XRPD (Form) 7 Days ([5]; ambient slurry in IPA)	Estimated Water Solubility [1] [mg/mL]	other results
O=C1c2cccc3[nH]nc(c23)CCN1[C@@H]1CN2CCC1CC2 [Free Form, (S)-7-(quinuclidin-3-yl)-8,9-dihydro-2H-azepino[5,4,3-cd]indazol-6(7H)-one]	no signs of form conversion	non hygroscopic	form conversion had not occurred			solubility ([1]; thermodynamic from solid, read-out: Estimated Water Solubility): < 2.5 mg/mL; pH [2]: 9.3; XRPD (Form) after water slurry [2]: no change in crystalline form; solubility ([2]; thermodynamic from solid, deionized water, ambient temperature, overnight slurry, HPLC or visual dissolution, initial XRPD Form A): 2 mg/mL (≈ 6.75 mM); 1H-NMR, signs of degradation [3]: No; water adsorbed ([4]; throughout the humidity program): less than 0.2 wt %
Cl [Hydrochloric acid]	no signs of conversion			no signs of conversion		
O=C(O)c1ccc2ccccc2c1O [1-hydroxy-2-napthoic acid]	Form B	moderately hygroscopic	Form B	Form B	4.7	Aqueous Solubility ([2]; deionized water, ambient temperature, overnight slurry, HPLC or visual dissolution, initial XRPD Form A): 2.3 mg/mL; pH [2]: 6.2; XRPD (Form) after water slurry [2]: Form C; water adsorbed ([4]; 60% RH): 1.5 wt %; water adsorbed ([4]; 90% RH): 2.5 wt %; water content during desorption ([4]; curve stabilized from 75%-55% RH): approximately 2.0 wt %
O=P(O)(O)O [Phosphoric acid]	no signs of conversion			no signs of conversion		
O=C(O)CCC(=O)O [Succinic acid]	no signs of conversion			no signs of conversion		
O=C(O)C[C@H](O)C(=O)O [L-Malic acid]					≥80	Estimated Water Solubility ([1]; listed as malate salt): 80 mg/mL
Cc1ccc(S(=O)(=O)O)cc1 [p-toluenesulfonic acid]					17.4	Estimated Water Solubility ([1]; listed as tosylate salt): 20.3 mg/mL
O=C1CCC(C(=O)O)N1 (centres unmarked) [2-pyrrolidine-5-carboxylic acid]	no signs of conversion	relatively non-hygroscopic	Form B	no signs of conversion		1H-NMR, signs of degradation [3]: No; behaviour at high relative humidity ([4]; listed as glutamate): deliquesced; behaviour at high relative humidity ([4]; listed as mono-glutamate salt): deliquescence; behaviour at 95% RH [6]: deliquesced
CS(=O)(=O)O [Methanesulfonic acid]	no signs of conversion	moderately hygroscopic	no form conversion had occurred			XRPD (Form) 7 Days ([5]; ambient slurry in THF): no signs of conversion; water adsorbed ([4]; 80% RH): 4.6 wt %; water adsorbed ([4]; 90% RH): 8.8 wt %
